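Interpolation was linear, between the two tested concentrations surrounding the appropriate level; five concentrations were tested over 48 hours in 96-well plates. Here, GI50 denotes the concentration required for 50% inhibition of growth.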 Active and inactive are the calls of the source. Cut-off read from the data, not from the text of the source: active = GI50 up to about 1.1 µM and inactive = higher.
Assays:
Assay in all cases: NCI-60 cell line screen, 48 h
[1] = test system: HOP-62
[2] = test system: SR
[3] = test system: TK-10
[4] = test system: CAKI-1
[5] = test system: HL-60
[6] = test system: SF-268
[7] = test system: SN12C
[8] = test system: CCRF-CEM
[9] = test system: U-251
[10] = test system: NCI-H23
[11] = test system: LOX IMVI
[12] = test system: MOLT-4
[13] = test system: OVCAR-8
[14] = test system: SK-MEL-5
[15] = test system: HOP-92
[16] = test system: SF-295
[17] = test system: OVCAR-4
[18] = test system: A498

Measured: GI50

CCC12CCCNC1c1c(n(C)c3ccccc13)C(C(=O)OC)C2 (centres undefined)
inactive: [1] 93.3 µM | [2] 49.8 µM | [3] 116 µM | [4] 32.8 µM | [5] 72.9 µM | [6] 85.5 µM | [7] 78.3 µM | [8] 85.1 µM | [9] 61.7 µM | [10] 51.6 µM | [11] 93.1 µM | [12] 68.7 µM | [13] 88.3 µM | [14] 36.6 µM | [15] 16.3 µM | [16] 50.4 µM

CCCCCCCC(=O)OCC(COC(=O)C(C)(C)C)OC(=O)Cc1ccccc1 (centres undefined)
inactive: [1] > 100 µM | [3] > 100 µM | [4] > 100 µM | [17] > 100 µM | [5] > 100 µM | [6] > 100 µM | [7] > 100 µM | [8] > 100 µM | [9] > 100 µM | [10] > 100 µM | [11] > 100 µM | [18] > 100 µM | [12] > 100 µM | [13] > 100 µM | [14] > 100 µM | [15] > 100 µM | [16] > 100 µM

C=C1c2ccccc2N(S(=O)(=O)c2ccc(C)cc2)C12CCCCC2
inactive: [1] > 100 µM | [2] 13.1 µM | [3] > 100 µM | [17] 53.1 µM | [5] 19.8 µM | [6] 63 µM | [7] > 100 µM | [8] 25.2 µM | [9] 94.6 µM | [10] 25.3 µM | [11] 36.6 µM | [12] 30.4 µM | [13] > 100 µM | [14] 30.8 µM | [15] 4.27 µM | [16] 74.5 µM

C=CCOC1CC(n2cnc3c(N)ncnc32)OC1CO (centres undefined)
inactive: [1] > 100 µM | [2] > 100 µM | [3] > 100 µM | [4] > 100 µM | [17] > 100 µM | [5] > 100 µM | [6] > 100 µM | [8] > 100 µM | [9] > 100 µM | [10] > 100 µM | [12] > 100 µM | [13] > 100 µM | [14] > 100 µM | [15] > 100 µM | [16] > 100 µM

COc1cc2c3c(c1OC)-c1ccccc1C(C(O)c1ccccc1)C3N(C)CC2 (centres undefined)
inactive: [1] 24.3 µM | [2] 18 µM | [3] 33.9 µM | [5] 20 µM | [6] 31.7 µM | [7] 32.6 µM | [8] 26.2 µM | [9] 30 µM | [10] 85.5 µM | [11] 32.1 µM | [12] 24.3 µM | [13] 69.3 µM | [14] 14.4 µM | [15] 53.3 µM | [16] 44.5 µM

Cc1cc(Cl)ccc1NC(=O)C1C(=O)C(=O)N(c2ccc(Cl)cc2C)C1=O (centres undefined)
inactive: [1] > 100 µM | [3] > 100 µM | [4] > 100 µM | [17] 38.6 µM | [5] > 100 µM | [6] 53 µM | [7] > 100 µM | [8] 55.6 µM | [9] 57.3 µM | [10] 74.5 µM | [11] > 100 µM | [18] > 100 µM | [12] 24.7 µM | [13] 56.6 µM | [14] > 100 µM | [15] 14.9 µM | [16] 95.5 µM

O=C(O)c1c2c(cc3c(=O)cc(-c4ccccc4)oc13)CCCC2
inactive: [1] > 100 µM | [3] > 100 µM | [17] > 100 µM | [6] > 100 µM | [7] > 100 µM | [8] > 100 µM | [9] > 100 µM | [10] > 100 µM | [11] > 100 µM | [18] > 100 µM | [12] > 100 µM | [13] > 100 µM | [14] > 100 µM | [15] > 100 µM | [16] > 100 µM

CC(=O)O/N=C/c1cc2c(cc1Br)OCO2
inactive: [1] > 349 µM | [2] > 349 µM | [3] > 349 µM | [4] > 349 µM | [5] > 349 µM | [6] > 349 µM | [7] > 349 µM | [8] > 349 µM | [9] > 34.9 µM | [10] > 349 µM | [11] > 349 µM | [12] > 349 µM | [13] > 349 µM | [14] > 349 µM | [15] > 349 µM | [16] 291 µM

N#CC(C#N)=Cc1ccc(C(O)P(=O)(O)O)cc1 (centres undefined)
inactive: [1] > 100 µM | [3] > 100 µM | [4] > 100 µM | [17] > 100 µM | [5] 93.5 µM | [6] > 100 µM | [7] > 100 µM | [8] 71.8 µM | [9] > 100 µM | [10] > 100 µM | [11] > 100 µM | [18] > 100 µM | [12] > 100 µM | [13] > 100 µM | [14] > 100 µM | [15] 39.6 µM | [16] > 100 µM
